The conditions of data set [1]: cited from earlier work.
Data set [2] is described as follows: Time to resolution (TTR) of AEs after treatment interruption or discontinuation, pooled cohorts. Format: in vivo, human. As to the method: Five of the most common AEs associated with axitinib treatment were assessed: diarrhea; fatigue; hypertension; nausea; and palmar-plantar erythrodysesthesia syndrome (PPE). Incidences of treatment-emergent AEs were taken from the full published articles for each study. AEs were classified and graded per the Common Terminology Criteria for Adverse Events version 3.0 or the National Cancer Institute Common Terminology Criteria for Adverse Events version 4.03, as used in each individual study. Incidences of AEs were reported for any grade and for grade ≥3.

Data set [3] can be described thus: Action taken for each occurrence of each AE by pooled treatment cohort. To be noted: occurrences of the AE.
Method: To determine the TTR for each of the AEs, data were pooled for different treatment cohorts as follows: patients who received axitinib monotherapy (axitinib monotherapy cohort); patients who received axitinib in combination with IO therapy (axitinib+10 cohort); and patients in comparator treatment arms who received another TKI as monotherapy, i.e., sorafenib or sunitinib (other TKI cohort). TTR was calculated for all causality, treatment-emergent AEs. For each AE reported for patients in each pooled cohort, the action taken on presentation of the AE was documented. […] TTR was determined for AEs of any grade and for grade Data were descriptive only; no statistical comparisons were made.
Action taken was determined as ‘not applicable’ when the associated drug was already permanently discontinued when the AE occurred.
[4] abbreviates: AEs of any grade, after treatment interruption or discontinuation.
The mark [5] stands for this setting: AEs of grade 3 or higher (FIG. 2).
Where [6] appears, read: drug already permanently discontinued.

Consider 5 molecules from US20220168293A1, “TIME TO RESOLUTION OF AXITINIB-RELATED ADVERSE EVENTS” (PFIZER INC., priority 2020, published 2022).

SMILES strings stand for the structures. Like-named read-outs stand apart in the source and are kept apart here.

Consider `CNC(=O)c1ccccc1Sc1ccc2c(/C=C/c3ccccn3)n[nH]c2c1` [Axitinib, axitinib], for which the half-life (in general, how long it takes for the measured level to halve) in data set [1] (after a single 5 mg dose) is 2.5 to 6.1 h. Further, in data set [2] (setting [4]), the “median (IQR) TTR, PPE” value is given as 3 (3-5) days; the “median (IQR) TTR, diarrhea” value is recorded as 3 (1-6) days; the “median (IQR) TTR, hypertension” value is 1 (1-3) days; the “median (IQR) TTR, nausea” value is 3 (1-7) days. Moreover, the “median (IQR) TTR, fatigue” value in data set [2] (AEs of any grade, after treatment interruption or discontinuation, listed as INLYTA monotherapy) is on record as 8 days. Moreover, the “median (IQR) TTR, fatigue” value in data set [2] (AEs of any grade, after treatment interruption or discontinuation, listed as axitinib monotherapy) is given as 8 (4-16) days. Also, in data set [2] (setting [5]), the “median (IQR) TTR, PPE” value is given as 3 (1-6) days; the “median (IQR) TTR, diarrhea” value is listed as 3 (2-6) days; the “median (IQR) TTR, hypertension” value was 2 (1-8) days; the “median (IQR) TTR, nausea” value is 4 (2-15) days. Besides, in data set [2] (AEs of grade 3 or higher (FIG. 2), listed as INLYTA monotherapy), the “median (IQR) TTR, fatigue” value worked out at 8 days. For the same molecule, the “median (IQR) TTR, fatigue” value in data set [2] (AEs of grade 3 or higher (FIG. 2), listed as axitinib monotherapy) is on record as 8 (5-16) days. Besides, the “Median TTR for adverse reactions, except for fatigue (range of medians)” value in data set [2] (all grade) is 1 to 3 days. Besides, in data set [2] (grade 3 or higher), the “Median TTR for adverse reactions, except for fatigue (range of medians)” value lay in the range of 2 to 4 days. Also, in data set [3], the “Diarrhea, action taken: Stopped temporarily and reduced” value turned out to be 0 n; the “Diarrhea, action taken: Unknown” value is 0 n; the “Fatigue, action taken: Stopped temporarily and reduced” value is 0 n; the “Fatigue, action taken: Unknown” value worked out at 0 n. Besides, in data set [3], the “Hypertension, action taken: Stopped temporarily and reduced” value turned out to be 0 n; the “Hypertension, action taken: Unknown” value is 0 n; the “Nausea, action taken: Permanently discontinued” value was 0 n; the “Nausea, action taken: Stopped temporarily and reduced” value is listed as 0 n. For the same molecule, in data set [3], the “Nausea, action taken: Unknown” value is on record as 0 n; the “PPE, action taken: Stopped temporarily and reduced” value turned out to be 0 n; the “PPE, action taken: Unknown” value is 0 n. Also, in data set [3] (setting [6]), the “Diarrhea, action taken: Not applicable” value amounted to 0 n; the “Fatigue, action taken: Not applicable” value came to 0 n; the “Hypertension, action taken: Not applicable” value is 0 n; the “Nausea, action taken: Not applicable” value was 0 n. Further, the “PPE, action taken: Not applicable” value in data set [3] (setting [6]) is on record as 0 n.
For the molecule `CNC(=O)c1cc(Oc2ccc(NC(=O)Nc3ccc(Cl)c(C(F)(F)F)c3)cc2)ccn1` [Sorafenib, sorafenib], the half-life in data set [1] (in vivo) was 25 to 48 h.
On to `CCN(CC)CCNC(=O)c1c(C)[nH]c(/C=C2\C(=O)Nc3ccc(F)cc32)c1C` [Sunitinib, sunitinib], for which, in data set [1] (in vivo), the half-life is 40 to 60 h.
Consider `COc1cc2nccc(Oc3ccc(NC(=O)C4(C(=O)Nc5ccc(F)cc5)CC4)cc3)c2cc1OC` [cabozantinib], for which the half-life in data set [1] (in vivo) is roughly 99 h.
As for `COc1cc2nccc(Oc3ccc(NC(=O)NC4CC4)c(Cl)c3)c2cc1C(N)=O` [lenvatinib], the half-life in data set [1] (in vivo) is roughly 28 h.
